Measurements taken from patent publication US20230181614A1, “ADMINISTRATION OF CITICOLINE TO IMPROVE COGNITIVE PERFORMANCE, ATTENTIONAL PERFORMANCE, AND MOTOR FUNCTION” (KYOWA HAKKO BIO CO., LTD., priority 2014, published 2023).
“And” between values parts separate entries of the source, which are not always exact repeats. Identical values can stand only once.

How the values were obtained:
[1] = test system: Healthy subjects, ages 13-18; test: Monitoring of Side Effects Scale (MOSES); format: in vivo, human; settings: for V2 MOSES (Mean): Visit 2; for V3 MOSES (Mean): Visit 3; for MOSES V3-V2 Score (Mean): visit difference score V3-V2; for MOSES difference scores, between groups: visit 1 to visit 3 (so in the source); for MOSES, within-group change: visit 2 to 3
Excerpt: Study participants were screened by telephone prior to study enrollment. Healthy subjects, ages 13-18, with no significant medical conditions and no history of co-morbid psychiatric disorder, current Axis I or II diagnosis, or previous participation in a pharmacotherapeutic trial, were selected. Use of any psychotropic medication or any previous head injury resulting in loss of consciousness for 5 or more minutes were used as exclusion criteria. While no participant met criteria for a neuropsychiatric disorder at enrollment, clinical assessments were still completed throughout the study to evaluate changes in mood state. In addition, self-reports of sleep habits, lifestyle, and exercise routines were also administered at baseline as well as at each study visit to assess changes in health habits during study participation. Following the completion of Visit 1 assessment, participants were given their 28-day supply of citicoline (250 mg or 500 mg) or placebo, which was randomly assigned. They were instructed to take one capsule a day every day for the next 28 days. Visit 2 occurred fourteen days after Visit 1. At Visit 2, the remaining study pills were counted and participant dosage calendars were checked to ensure compliance with the protocol. Additional neuropsychological measures and clinical assessments were administered during this visit. Participants returned for Visit 3 fourteen days later, on the 28th day of their study participation. The pill bottle and the dosage calendar were collected from each participant. Urine and blood were again obtained. Participants also participated in similar clinical and neuropsychological testing and clinical measures that were given during visit 1. The MOSES is a scale designed to assess common symptoms or adverse events associated with psychopharmacological medications. This scale is divided into nine body areas representing a typical physical examination. The interviewer asks subjects whether they have each symptom on the measure and, if so, asks them to report the level of severity of the symptom on a scale from 0 (not present) to 4 (severe). […]

[2] = test system: Healthy subjects, ages 13-18; test: Exercise and Life Style Questionnaire; format: in vivo, human; parameters: scale not given here; settings: for Alcohol Q10 V1 Mean / Alcohol Q11 V1 Mean / Alcohol Q12 V1 Mean / Alcohol Total V1 Mean / Appetite Q5 V1 Mean / Appetite Q6 V1 Mean / Appetite Total V1 Mean / Exercise Q1 V1 Mean / Exercise Q2 V1 Mean / Exercise Q3 V1 Mean / Exercise Q4 V1 Mean / Exercise Total V1 Mean / Smoke Q7 V1 Mean / Smoke Q8 V1 Mean / Smoke Q9 V1 Mean / Smoke Total V1 Mean: Visit 1; for Alcohol Q10 V3 Mean / Alcohol Q11 V3 Mean / Alcohol Q12 V3 Mean / Alcohol Total V3 Mean / Appetite Q5 V3 Mean / Appetite Q6 V3 Mean / Appetite Total V3 Mean / Exercise Q1 V3 Mean / Exercise Q2 V3 Mean / Exercise Q3 V3 Mean / Exercise Q4 V3 Mean / Exercise Total V3 Mean / Smoke Q7 V3 Mean / Smoke Q8 V3 Mean / Smoke Q9 V3 Mean / Smoke Total V3 Mean: Visit 3
Excerpt: Study participants were screened by telephone prior to study enrollment. Healthy subjects, ages 13-18, with no significant medical conditions and no history of co-morbid psychiatric disorder, current Axis I or II diagnosis, or previous participation in a pharmacotherapeutic trial, were selected. Use of any psychotropic medication or any previous head injury resulting in loss of consciousness for 5 or more minutes were used as exclusion criteria. While no participant met criteria for a neuropsychiatric disorder at enrollment, clinical assessments were still completed throughout the study to evaluate changes in mood state. In addition, self-reports of sleep habits, lifestyle, and exercise routines were also administered at baseline as well as at each study visit to assess changes in health habits during study participation. Following the completion of Visit 1 assessment, participants were given their 28-day supply of citicoline (250 mg or 500 mg) or placebo, which was randomly assigned. They were instructed to take one capsule a day every day for the next 28 days. Visit 2 occurred fourteen days after Visit 1. At Visit 2, the remaining study pills were counted and participant dosage calendars were checked to ensure compliance with the protocol. Additional neuropsychological measures and clinical assessments were administered during this visit. Participants returned for Visit 3 fourteen days later, on the 28th day of their study participation. The pill bottle and the dosage calendar were collected from each participant. Urine and blood were again obtained. Participants also participated in similar clinical and neuropsychological testing and clinical measures that were given during visit 1. The General Questionnaire and Exercise and Life Style Questionnaire are self-report questionnaires designed to assess a variety of symptoms, behaviors, and self-perceptions, including mood, complexion, exercise, food, and alcohol habits of each of the participants. The General Questionnaire was administered during each of the three study visits; the Exercise and Life Style Questionnaire was administered during each of the three study visits. The Exercise/Lifestyle Questionnaire included four summary categories (Exercise, Appetite, Smoke, and Alcohol), each of which consisted of multiple individual items. Within and between group analyses are reported below for each of the summary categories.

C[N+](C)(C)CCOP(=O)(O)OP(=O)([O-])OC[C@H]1O[C@@H](n2ccc(N)nc2=O)[C@H](O)[C@@H]1O [citicoline, Cytidine 5′-diphosphocholine]
V2 MOSES (Mean) ([1]; 250 mg/day group): 1.30
V3 MOSES (Mean) ([1]; 250 mg/day group): 1.04
MOSES V3-V2 Score (Mean) ([1]; 250 mg/day group): -0.26
MOSES difference scores, between groups ([1]; 250 mg/day vs 500 mg/day, p=0.64): no significant differences
MOSES, between groups ([1]; 250 mg/day vs 500 mg/day, visit 3, p=0.11): no significant difference
MOSES difference scores, between groups ([1]; 250 mg/day vs Placebo, p=0.70): no significant differences
MOSES, between groups ([1]; 250 mg/day vs Placebo, visit 3, p=0.21): no significant difference
MOSES, within-group change ([1]; 250 mg/day, p=0.34): no significant differences
V2 MOSES (Mean) ([1]; 500 mg/day group): 0.81
V3 MOSES (Mean) ([1]; 500 mg/day group): 0.38
MOSES V3-V2 Score (Mean) ([1]; 500 mg/day group): -0.43
MOSES, within-group change ([1]; 500 mg/day, p=0.07): trend toward significant differences
MOSES difference scores, between groups ([1]; Placebo vs 500 mg/day, p=0.30): no significant differences
MOSES, between groups ([1]; Placebo vs 500 mg/day, visit 3, p=0.85): No significant difference
MOSES difference scores, three groups ([1]; p=0.66): no significant differences
MOSES, overall analysis ([1]; three groups, visit 3, p=0.23): no significant differences
Alcohol Total V3-V1 Mean ([2]; 250 mg/day): 0.00
Appetite Total V3-V1 Mean ([2]; 250 mg/day): -0.59
Exercise Total V3-V1 Mean ([2]; 250 mg/day): -0.78
Smoke Total V3-V1 Mean ([2]; 250 mg/day): -0.07
Alcohol Q10 V1 Mean ([2]; 250 mg/day): 0.07
Alcohol Q11 V1 Mean ([2]; 250 mg/day): 1.00
Alcohol Q12 V1 Mean ([2]; 250 mg/day): 1.00
Alcohol Total V1 Mean ([2]; 250 mg/day): 2.07
Appetite Q5 V1 Mean ([2]; 250 mg/day): 4.11
Appetite Q6 V1 Mean ([2]; 250 mg/day): 4.44
Appetite Total V1 Mean ([2]; 250 mg/day): 8.56
Exercise Q1 V1 Mean ([2]; 250 mg/day): 1.15
Exercise Q2 V1 Mean ([2]; 250 mg/day): 6.35
Exercise Q3 V1 Mean ([2]; 250 mg/day): 3.56
Exercise Q4 V1 Mean ([2]; 250 mg/day): 3.81
Exercise Total V1 Mean ([2]; 250 mg/day): 14.87
Smoke Q7 V1 Mean ([2]; 250 mg/day): 0.00
Smoke Q8 V1 Mean ([2]; 250 mg/day): 1.00
Smoke Q9 V1 Mean ([2]; 250 mg/day): 1.07
Smoke Total V1 Mean ([2]; 250 mg/day): 2.08
Alcohol Q10 V3 Mean ([2]; 250 mg/day): 0.07
Alcohol Q11 V3 Mean ([2]; 250 mg/day): 1.00
Alcohol Q12 V3 Mean ([2]; 250 mg/day): 1.00
Alcohol Total V3 Mean ([2]; 250 mg/day): 2.07
Appetite Q5 V3 Mean ([2]; 250 mg/day): 4.15
Appetite Q6 V3 Mean ([2]; 250 mg/day): 3.81
Appetite Total V3 Mean ([2]; 250 mg/day): 7.96
Exercise Q1 V3 Mean ([2]; 250 mg/day): 1.07
Exercise Q2 V3 Mean ([2]; 250 mg/day): 6.80
Exercise Q3 V3 Mean ([2]; 250 mg/day): 3.11
Exercise Q4 V3 Mean ([2]; 250 mg/day): 3.11
Exercise Total V3 Mean ([2]; 250 mg/day): 14.09
Smoke Q7 V3 Mean ([2]; 250 mg/day): 0.00
Smoke Q8 V3 Mean ([2]; 250 mg/day): 1.00
Smoke Q9 V3 Mean ([2]; 250 mg/day): 1.00
Smoke Total V3 Mean ([2]; 250 mg/day): 2.00
Alcohol Total V3-V1 Mean ([2]; 500 mg/day): 0.00
Appetite Total V3-V1 Mean ([2]; 500 mg/day): -0.83
Exercise Total V3-V1 Mean ([2]; 500 mg/day): -2.78
Smoke Total V3-V1 Mean ([2]; 500 mg/day): 0.00
Alcohol Q10 V1 Mean ([2]; 500 mg/day): 0.00
Alcohol Q11 V1 Mean ([2]; 500 mg/day): 1.00
Alcohol Q12 V1 Mean ([2]; 500 mg/day): 1.00
Alcohol Total V1 Mean ([2]; 500 mg/day): 2.00
Appetite Q5 V1 Mean ([2]; 500 mg/day): 3.96
Appetite Q6 V1 Mean ([2]; 500 mg/day): 3.25
Appetite Total V1 Mean ([2]; 500 mg/day): 7.21
Exercise Q1 V1 Mean ([2]; 500 mg/day): 1.17
Exercise Q2 V1 Mean ([2]; 500 mg/day): 8.50
Exercise Q3 V1 Mean ([2]; 500 mg/day): 3.71
Exercise Q4 V1 Mean ([2]; 500 mg/day): 3.75
Exercise Total V1 Mean ([2]; 500 mg/day): 17.24
Smoke Q7 V1 Mean ([2]; 500 mg/day): 0.00
Smoke Q8 V1 Mean ([2]; 500 mg/day): 1.00
Smoke Q9 V1 Mean ([2]; 500 mg/day): 1.00
Smoke Total V1 Mean ([2]; 500 mg/day): 2.00
Alcohol Q10 V3 Mean ([2]; 500 mg/day): 0.00
Alcohol Q11 V3 Mean ([2]; 500 mg/day): 1.00
Alcohol Q12 V3 Mean ([2]; 500 mg/day): 1.00
Alcohol Total V3 Mean ([2]; 500 mg/day): 2.00
Appetite Q5 V3 Mean ([2]; 500 mg/day): 3.50
Appetite Q6 V3 Mean ([2]; 500 mg/day): 2.88
Appetite Total V3 Mean ([2]; 500 mg/day): 6.38
Exercise Q1 V3 Mean ([2]; 500 mg/day): 1.13
Exercise Q2 V3 Mean ([2]; 500 mg/day): 7.54
Exercise Q3 V3 Mean ([2]; 500 mg/day): 2.96
Exercise Q4 V3 Mean ([2]; 500 mg/day): 2.75
Exercise Total V3 Mean ([2]; 500 mg/day): 14.46 and 14.48
Smoke Q7 V3 Mean ([2]; 500 mg/day): 0.00
Smoke Q8 V3 Mean ([2]; 500 mg/day): 1.00
Smoke Q9 V3 Mean ([2]; 500 mg/day): 1.00
Smoke Total V3 Mean ([2]; 500 mg/day): 2.00
